The values that follow come from ChEMBL document CHEMBL3045254, “Molecular modeling of the Toxoplasma gondii adenosine kinase inhibitors” (Med Chem Res, 2012).

In this test the target is T1, Adenosine kinase (Toxoplasma gondii, UniProt Q9TVW2).
T1 sequence (Q9TVW2 whole entry): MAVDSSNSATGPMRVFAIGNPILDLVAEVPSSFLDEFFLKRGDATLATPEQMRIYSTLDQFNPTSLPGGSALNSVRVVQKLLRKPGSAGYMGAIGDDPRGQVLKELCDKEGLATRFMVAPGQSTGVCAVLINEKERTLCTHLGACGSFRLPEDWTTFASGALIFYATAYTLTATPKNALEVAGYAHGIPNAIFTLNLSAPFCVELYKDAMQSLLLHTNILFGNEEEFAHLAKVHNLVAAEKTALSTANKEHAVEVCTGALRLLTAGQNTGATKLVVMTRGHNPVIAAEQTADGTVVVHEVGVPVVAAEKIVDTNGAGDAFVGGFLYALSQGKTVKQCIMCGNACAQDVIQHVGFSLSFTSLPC
Kind of test: Inhibition of Toxoplasma gondii adenosine kinase.

The structures appear in SMILES notation.

Regarding `OC[C@H]1O[C@@H](n2cnc3c(NCc4cccc(F)c4)ncnc32)[C@H](O)[C@@H]1O`, the IC50 (read-out: IC50) turned out to be 23.2 µM.

Turning to `OC[C@H]1O[C@@H](n2cnc3c(NCc4ccc(F)cc4)ncnc32)[C@H](O)[C@@H]1O`, the IC50 (read-out: IC50) is 20.6 µM.

As to `OC[C@H]1O[C@@H](n2cnc3c(NCc4ccc(Cl)cc4)ncnc32)[C@H](O)[C@@H]1O`, where the note is “read-out: IC50”, the IC50 was determined as 25.8 µM.

For the molecule `COc1ccccc1CNc1ncnc2c1ncn2[C@@H]1O[C@H](CO)[C@@H](O)[C@H]1O`, the IC50 (read-out: IC50) amounted to 8.7 µM.

On to `OC[C@H]1O[C@@H](n2cnc3c(NCc4ccc(C(F)(F)F)cc4)ncnc32)[C@H](O)[C@@H]1O`, for which, where the note is “read-out: IC50”, the IC50 amounted to 22.9 µM.

`COc1ccc(CNc2ncnc3c2ncn3[C@@H]2O[C@H](CO)[C@@H](O)[C@H]2O)cc1`: the IC50 is, setting by setting: (read-out: IC50) 7.5 µM; (read-out: pIC50 (converted)) 7.19 µM.

On to `OC[C@H]1O[C@@H](n2cnc3c(NCc4ccc(Cl)c(Cl)c4)ncnc32)[C@H](O)[C@@H]1O`, for which, under “read-out: IC50”, the IC50 stood at 14.3 µM.

`COc1ccc(CNc2ncnc3c2ncn3[C@@H]2O[C@H](CO)[C@@H](O)[C@H]2O)c(OC)c1`: where the note is “read-out: IC50”, the IC50 was found to be 8.7 µM.

On to `OC[C@H]1O[C@@H](n2cnc3c(NCc4ccc(F)cc4F)ncnc32)[C@H](O)[C@@H]1O`, for which the IC50 (read-out: IC50) came to 8.2 µM.

For `N#Cc1ccc(CNc2ncnc3c2ncn3[C@@H]2O[C@H](CO)[C@@H](O)[C@H]2O)c(Cl)c1`, the IC50 reads like this: (read-out: IC50) 21.1 µM; (read-out: pIC50 (converted)) 10.4 µM.

As for `COc1ccc(CNc2ncnc3c2ncn3[C@@H]2O[C@H](CO)[C@@H](O)[C@H]2O)c(F)c1`, the IC50 (read-out: IC50) turned out to be 9.5 µM.

In the case of `CC(C)(C)c1ccc(CSc2ncnc3c2ncn3[C@@H]2O[C@H](CO)[C@@H](O)[C@H]2O)cc1`, the affinity corresponds to a Ki of 113 µM. The IC50 (read-out: IC50) stood at 23.3 µM.

In turn, `OC[C@H]1O[C@@H](n2cnc3c(SCc4ccccc4Cl)ncnc32)[C@H](O)[C@@H]1O` yielded a Ki of 1.4 µM. Besides, where the note is “read-out: IC50”, the IC50 was 6.7 µM.

The molecule `Cc1ccc(CSc2ncnc3c2ncn3[C@@H]2O[C@H](CO)[C@@H](O)[C@H]2O)cc1` yielded an inhibition constant (Ki) of 3.3 µM. For the same molecule, the IC50 (read-out: IC50) is 7.8 µM.

As to `OC[C@H]1O[C@@H](n2cnc3c(NCc4ccccc4Cl)ncnc32)[C@H](O)[C@@H]1O`, the IC50 (read-out: IC50) is 10.6 µM.

In the case of `Cc1cccc(CNc2ncnc3c2ncn3[C@@H]2O[C@H](CO)[C@@H](O)[C@H]2O)c1`, where the note is “read-out: IC50”, the IC50 came out at 8.5 µM.

Regarding `Cc1ccc(CNc2ncnc3c2ncn3[C@@H]2O[C@H](CO)[C@@H](O)[C@H]2O)cc1`, the IC50 (read-out: IC50) worked out at 10.5 µM.

As to `OC[C@H]1O[C@@H](n2cnc3c(NCc4ccc(Cl)cc4Cl)ncnc32)[C@H](O)[C@@H]1O`, under “read-out: IC50”, the IC50 came to 9.3 µM.

Turning to `OC[C@H]1O[C@@H](n2cnc3c(SCc4ccc(F)cc4)ncnc32)[C@H](O)[C@@H]1O`, the Ki was 1.2 µM. In addition, the IC50 (read-out: IC50) is 10.3 µM.

On to `OC[C@H]1O[C@@H](n2cnc3c(SCc4ccc(Br)cc4)ncnc32)[C@H](O)[C@@H]1O`, for which the Ki stood at 7.5 µM. Moreover, the IC50 (read-out: IC50) was found to be 14.3 µM.

On to `OC[C@H]1O[C@@H](n2cnc3c(SCc4ccc(OC(F)(F)F)cc4)ncnc32)[C@H](O)[C@@H]1O`, for which the Ki stood at 141 µM. The IC50 (read-out: IC50) was 24.8 µM.

`OC[C@H]1O[C@@H](n2cnc3c(NCc4ccccc4F)ncnc32)[C@H](O)[C@@H]1O`: the IC50 (read-out: IC50) came out at 37.8 µM.

Consider `Cc1ccccc1CSc1ncnc2c1ncn2[C@@H]1O[C@H](CO)[C@@H](O)[C@H]1O`, for which the Ki is 1.5 µM. Moreover, for the setting “read-out: IC50”, the IC50 was found to be 7.7 µM.

Regarding `OC[C@H]1O[C@@H](n2cnc3c(SCc4ccc(Cl)c(Cl)c4)ncnc32)[C@H](O)[C@@H]1O`, the affinity corresponds to a Ki of 2.5 µM. The IC50 (read-out: IC50) is 10.4 µM. In addition, under “read-out: pIC50 (converted)”, the IC50 is 21.1 µM.

In turn, `Cc1cccc(CSc2ncnc3c2ncn3[C@@H]2O[C@H](CO)[C@@H](O)[C@H]2O)c1` registered a Ki of 1.3 µM. In addition, the IC50 (read-out: IC50) was 8.2 µM.

As to `OC[C@H]1O[C@@H](n2cnc3c(SCc4cccc(C(F)(F)F)c4)ncnc32)[C@H](O)[C@@H]1O`, the Ki was found to be 2.9 µM. The IC50 (read-out: IC50) came out at 8.7 µM.

`OC[C@H]1O[C@@H](n2cnc3c(SCc4c(F)cccc4Cl)ncnc32)[C@H](O)[C@@H]1O`: the Ki stood at 37.7 µM. Also, the IC50 (read-out: IC50) came to 8.7 µM.

`OC[C@H]1O[C@@H](n2cnc3c(SCc4ccccc4F)ncnc32)[C@H](O)[C@@H]1O`: under “read-out: IC50”, the IC50 came out at 8.2 µM.

`Cc1cc(C)c(CSc2ncnc3c2ncn3[C@@H]2O[C@H](CO)[C@@H](O)[C@H]2O)c(C)c1`: the Ki is 150 µM. Where the note is “read-out: IC50”, the IC50 turned out to be 31.1 µM.

`OC[C@H]1O[C@@H](n2cnc3c(SCc4ccc(Cl)cc4)ncnc32)[C@H](O)[C@@H]1O`: affinity was put at a Ki of 2.1 µM. Further, the IC50 (read-out: IC50) was 8.11 µM.

Molecule `COc1ccc(CSc2ncnc3c2ncn3[C@@H]2O[C@H](CO)[C@@H](O)[C@H]2O)cc1` yielded an inhibitory constant (Ki) of 2.6 µM. For the same molecule, where the note is “read-out: IC50”, the IC50 amounted to 3.5 µM.

`OC[C@H]1O[C@@H](n2cnc3c(SCc4ccc(Cl)cc4Cl)ncnc32)[C@H](O)[C@@H]1O` yielded an inhibition constant Ki of 0.7 µM. Further, the IC50 (read-out: IC50) came out at 7.3 µM.

As for `O=[N+]([O-])c1cccc(CSc2ncnc3c2ncn3[C@@H]2O[C@H](CO)[C@@H](O)[C@H]2O)c1`, the inhibition constant (Ki) worked out at 3 µM. Also, the IC50 (read-out: IC50) is 6.2 µM.

For `N#Cc1ccc(CSc2ncnc3c2ncn3[C@@H]2O[C@H](CO)[C@@H](O)[C@H]2O)cc1`, the Ki is 0.9 µM. The IC50 (read-out: IC50) came to 4.3 µM.

`OC[C@H]1O[C@@H](n2cnc3c(SCc4ccccc4)ncnc32)[C@H](O)[C@@H]1O` [6-BENZYLTHIOINOSINE] had a Ki of 2.4 µM. The IC50 (read-out: IC50) stood at 9.3 µM.

In the case of `OC[C@H]1O[C@@H](n2cnc3c(NCc4ccccc4)ncnc32)[C@H](O)[C@@H]1O` [N6-BENZYLADENOSINE], for the setting “read-out: pIC50 (converted)”, the IC50 was 794 µM.

As for `O=[N+]([O-])c1ccc(CSc2ncnc3c2ncn3[C@@H]2O[C@H](CO)[C@@H](O)[C@H]2O)cc1` [NITROBENZYLMERCAPTOPURINE RIBONUCLEOSIDE], the inhibition constant Ki worked out at 1.1 µM. Further, the IC50 (read-out: IC50) stood at 12 µM.

Regarding `O=[N+]([O-])c1ccccc1CNc1ncnc2c1ncn2[C@@H]1O[C@H](CO)[C@@H](O)[C@H]1O` [O-NITRO-N6-BENZYLADENOSINE], under “read-out: IC50”, the IC50 is 15 µM.

For the molecule `CC(=O)Oc1ccc(CSc2ncnc3c2ncn3[C@@H]2O[C@H](CO)[C@@H](O)[C@H]2O)cc1` [P-ACETOXY-6-BENZYLTHIOINOSINE], the affinity, expressed as Ki, was 96.1 µM. The IC50 (read-out: IC50) was 15 µM.

With `N#Cc1ccc(CNc2ncnc3c2ncn3[C@@H]2O[C@H](CO)[C@@H](O)[C@H]2O)cc1` [P-CYANO-N6-BENZYLADENOSINE], under “read-out: IC50”, the IC50 worked out at 8.3 µM.

On to `CC(C)c1ccc(CNc2ncnc3c2ncn3[C@@H]2O[C@H](CO)[C@@H](O)[C@H]2O)cc1` [P-ISOPROPYL-N6-BENZYLADENOSINE], for which, where the note is “read-out: IC50”, the IC50 is 22 µM.

Take `C=Cc1ccc(CNc2ncnc3c2ncn3[C@@H]2O[C@H](CO)[C@@H](O)[C@H]2O)cc1` [P-VINYL-N6-BENZYLADENOSINE]: the IC50 (read-out: IC50) was 26.2 µM.

What is called Ki is a dissociation constant, usually derived from enzyme kinetics or from competition with a known ligand. A high value points to weaker binding.
